# From patent US8268829B2, “Substituted pyrimidines useful as protein kinase inhibitors” (Vertex Pharmaceuticals Inc., priority 2002, dated 2012)
row,melting point [°C],SMILES
1,151 to 152,CCC(=O)Nc1ccc(Sc2nc(Nc3cc(C)n[nH]3)cc(N3CC(C)NC(C)C3)n2)cc1 (centres unmarked) [Compound I-19]
2,178 to 181,Cc1cc(Nc2cc(N3CCNCC3)nc(Sc3ccc(NC(=O)C(C)(C)C)cc3)n2)[nH]n1 [Compound V-3]
3,159 to 160,CCC(=O)Nc1ccc(Sc2nc(Nc3cc(C)n[nH]3)cc(N3CCC(N)C3)n2)cc1 (centres unmarked) [Compound I-20]
4,220 to 222,Cc1cc(Nc2cc(NCCN3CCCC3)nc(Sc3ccc(NC(=O)C4CC4)cc3)n2)[nH]n1 [Compound I-29]

# Further lines, the compound ahead of its results:
row,SMILES,melting point [°C]
1,Cc1cc(Nc2cc(N3CCOCC3)nc(Sc3ccc(NC(=O)C4CC4)cc3)n2)[nH]n1 [Compound I-61],238 to 239
2,CC(C)(C)N1CCN(c2cc(Nc3ccn[nH]3)nc(Sc3ccc(NC(=O)C4CC4)cc3)n2)CC1 [Compound I-53],167 to 169
3,O=C(Nc1ccc(Sc2nc(Nc3ccn[nH]3)cc(N3CCN(CC(=O)N4CCOCC4)CC3)n2)cc1)C1CC1 [Compound I-47],158 to 159
4,CC1CN(c2cc(Nc3ccn[nH]3)nc(Sc3ccc(NC(=O)C4CC4)cc3)n2)CCN1 (centres unmarked) [Compound I-46],160 to 161
5,CS(=O)(=O)N1CCN(c2cc(Nc3ccn[nH]3)nc(Sc3ccc(NC(=O)C4CC4)cc3)n2)CC1 [Compound I-42],168 to 169
6,CS(=O)(=O)CCN1CCN(c2cc(Nc3ccn[nH]3)nc(Sc3ccc(NC(=O)C4CC4)cc3)n2)CC1 [Compound I-45],154 to 155
7,N#CCCN1CCN(c2cc(Nc3ccn[nH]3)nc(Sc3ccc(NC(=O)C4CC4)cc3)n2)CC1 [Compound I-37],131 to 132
